Patent EP4631940A1, “COMPOUND TARGETING PAN-KRAS PROTEIN DEGRADATION AGENT AND USE THEREOF” (Betta Pharmaceuticals Co., Ltd., priority 2022, dated 2024)
Like-named read-outs stand apart in the source and are kept apart here.

Columns and labels:
[1] = test system: AGS; assay: Cell proliferation experiment (CellTiter-Glo); type: cell-based; conditions: read-out: IC50(nM) AGS
[2] = test system: SW620; assay: Cell proliferation experiment (CellTiter-Glo); type: cell-based; conditions: read-out: IC50(nM) SW620
[3] = target: T1, KRAS G12D (Homo sapiens, UniProt P01116, G12D)
[4] = target: T1, KRAS G12D; assay: cell-based; conditions: AGS
[5] = AGS, KRAS mutation type G12D, 96 h incubation
[6] = SW620, KRAS mutation type G12V, 96 h incubation

Row | Compound | IC50 [1, 5] [nM] | IC50 [2, 6] [nM] | further results
1 | CCc1c(F)ccc2cc(O)cc(-c3ncc4c(N5CCC[C@@](C)(O)C5)nc(OCC5(CN6CCC(Oc7cnc(-c8cn([C@H](C(=O)N9C[C@H](O)C[C@H]9C(=O)N[C@@H](CC(=O)NC)c9ccc(-c%10scnc%10C)cc9)C(C)C)nn8)cn7)CC6)CC5)nc4c3F)c12 [Compound 190, (2S,4R)-1-((S)-2-(4-(5-(1-((((7-(8-ethyl-7-fluoro-3-hydroxynaphthalen-1-yl)-8-fluoro-4-(((R)-3-hydroxy-3-methylpiperidin-1-yl)pyrido[4,3-d]pyrimidin-2-yl)oxy)methyl)cyclopropyl)methyl)piperidin-4-yl)oxy)-2-ylpyrazin-1H-1,2,3-triazol-1-yl)-3-methylbutanoyl)-4-hydroxy-N-((S)-3-(methylamino)-1-(4-(4-methylthiazol-5-yl)phenyl)-3-oxopropyl)pyrrolidine-2-carboxamide] | 11 | 38 | –
2 | (7-(8-ethyl-7-fluoro-3-hydroxynaphthalen-1-yl)-8-fluoro-4-(R)-3-hydroxy-3-methylpiperidin-1-y l)pyrido[4,3-d]pyrimidin-2-yl)oxy)methyl)-6-methylenehexahydro-1H-pyrrolizin-3-yl)methyl ((3-(1-((S)-1-(2S,4R)-4-hydroxy-2-(S)-1-(4-methylthiazol-5-yl)phenyl)ethyl)carbamoyl)pyrrolidi n-1-yl)-3-methyl-1-oxobutan-2-yl)-1H-1,2,3-triazol-4-yl)bicyclo[1.1.1]pentan-1-yl)methyl)carba mate [Compound 126] | – | – | IC50 [1]: 32 nM; IC50 [2]: 246 nM; DC50 [3]: 23 nM; Dmax (%) [3]: 95%
3 | CCc1c(F)ccc2cc(O)cc(-c3ncc4c(N5CCC[C@@](C)(O)C5)nc(OCC5(CN6CCC7(CC6)CC(Oc6cc([C@H](C(=O)N8C[C@H](O)C[C@H]8C(=O)N[C@@H](C)c8ccc(-c9scnc9C)cc8)C(C)C)on6)C7)CC5)nc4c3F)c12 [Compound 150] | – | – | IC50 ([1]; Homo sapiens, AGS, 96 h): 11 nM; DC50 [3]: 14 nM; Dmax [4]: 95%
4 | CCc1c(F)ccc2cc(O)cc(-c3ncc4c(N5CCC[C@@](C)(O)C5)nc(OC[C@]56CCCN5[C@@H](COc5ccc(-c7cn([C@H](C(=O)N8C[C@H](O)C[C@H]8C(=O)N[C@@H](C)c8ccc(-c9scnc9C)cc8)C(C)C)nn7)cn5)CC6)nc4c3F)c12 [Compound 157] | – | – | IC50 ([1]; Homo sapiens, AGS, 96 h): 19 nM; DC50 [3]: 7.7 nM; Dmax [4]: 95%
5 | (2S,4R)-1-((S)-2-(4-(5-(3-(1-(((7-(8-ethyl-7-fluoro-3-hydroxynaphthalen-1-yl)-8-fluoro-4-((R)-3 -hydroxy-3-methylpiperidin-1-yl)pyrido[4,3-d]pyrimidin-2-yl)-3-methylbutanoyl)-4-hydroxy-N-((S)-1-(4-(4-methylthiazol-5-yl)phenyl)ethyl)pyrrolidine-2-carboxamide [Compound 200] | 4.6 | 20 | –
6 | CCc1c(F)ccc2cc(O)cc(-c3ncc4c(N5CCC[C@@](C)(O)C5)nc(OCC5(CN6CCC(N7CCC(c8cnc(-c9cn([C@H](C(=O)N%10C[C@H](O)C[C@H]%10C(=O)N[C@@H](C)c%10ccc(-c%11scnc%11C)cc%10)C(C)C)nn9)cn8)CC7)CC6)CC5)nc4c3F)c12 [Compound 195] | 4.4 | 18 | –
7 | (2S,4R)-1-((S)-2-(4-(5-(2-(4-((1-((7-(8-ethyl-7-fluoro-3-hydroxynaphthalen-1-yl)-8-fluoro-4-((R )-3-hydroxy-3-methylpiperidin-1-yl)pyrido[4,3-d]pyrimidin-2-yl)oxy)methyl)cyclopropyl)methy l)piperazin-1-yl)-2-oxyethyl)pyrazin-2-yl)-1H-1,2,3-triazol-1-yl)-3-methylbutanoyl)-4-hydroxy-N-((S)-1-(4-(4-methylthiazol-5-yl)phenyl)ethyl)pyrrolidine-2-carboxamide [Compound 174] | 8 | 59 | –
8 | (2S,4R)-1-((2S)-2-(4-(5-(1-(4-((1-(((7-(8-ethyl-7-fluoro-3-hydroxynaphthalen-1-yl)-8-fluoro-4-(( R)-3-hydroxy-3-methylpiperidin-1-yl)pyrido[4,3-d]pyrimidin-2-yl)oxy)methyl)cyclopropyl)meth yl)piperidin-1-yl)ethyl)piperidin-2-yl)-1H-1,2,3-triazol-1-yl)-3-methylbutanoyl)-4-hydroxy-N-(( S)-1-(4-(4-methylthiazol-5-yl)phenyl)ethyl)pyrrolidine-2-carboxamide [Compound 194] | – | – | IC50 [1]: 5.5 nM; IC50 [2]: 26 nM
9 | (2S,4R)-1-((S)-2-(4-(5-(3-(4-((1-((7-(8-ethyl-7-fluoro-3-hydroxynaphthalen-1-yl)-8-fluoro-4-((R )-3-hydroxy-3-methylpiperidin-1-yl)pyrido[4,3-d]pyrimidin-2-yl)oxy)methyl)cyclopropyl)methy l)piperazin-1-yl)azetidin-1-yl)pyrazin-2-yl)-1H-1,2,3-triazol-1-yl)-3-methylbutanoyl)-4-hydroxy -N-((R)-2-hydroxy-1-(4-(4-methylthiazol-5-yl)phenyl)ethyl)pyrrolidine-2-carboxamide [Compound 192] | 3.2 | 17 | –
10 | CCc1c(F)ccc2cc(O)cc(-c3ncc4c(N5CCCC(C)(O)C5)nc(OCC5(CN6CCN(Cc7cc(-c8cn([C@H](C(=O)N9C[C@H](O)C[C@H]9C(=O)N[C@@H](C)c9ccc(-c%10scnc%10C)cc9)C(C)C)nn8)n(C)n7)CC6)CC5)nc4c3F)c12 (some centres unmarked) [Compound 202] | 15 | 54 | –
11 | C=C1CN2[C@H](COC(=O)N3CCC4(CC3)CC(C(=O)N[C@H](C(=O)N3C[C@H](O)C[C@H]3C(=O)N[C@@H](C)c3ccc(-c5scnc5C)cc3)C(C)(C)C)C4)CC[C@@]2(COc2nc(N3CCC[C@@](C)(O)C3)c3cnc(-c4cc(O)cc5ccc(F)c(CC)c45)c(F)c3n2)C1 [Compound 140] | – | – | IC50 [1]: 28 nM; IC50 [2]: 167 nM
12 | CCc1c(F)ccc2cccc(-c3ncc4c(N5CCC[C@@](C)(O)C5)nc(OCC5(CN6CCC(Oc7cnc(-c8cn([C@H](C(=O)N9C[C@H](O)C[C@H]9C(=O)N[C@@H](C)c9ccc(-c%10scnc%10C)cc9)C(C)C)nn8)cn7)CC6)CC5)nc4c3F)c12 [Compound 201] | 13 | 46 | –
13 | CCc1c(F)ccc2cc(O)cc(-c3ncc4c(N5CCC[C@@](C)(O)C5)nc(OCC5(CN6CCC(N7CCN(c8cnc(-c9cn([C@H](C(=O)N%10C[C@H](O)C[C@H]%10C(=O)N[C@@H](C)c%10ccc(-c%11scnc%11C)cc%10)C(C)C)nn9)cn8)CC7)CC6)CC5)nc4c3F)c12 [Compound 196, (2S,4R)-1-((S)-2-(4-(5-(4-(1-(((7-(8-ethyl-7-fluoro-3-hydroxynaphthalen-1-yl)-8-fluoro-4-(((R)-3-hydroxy-3-methylpiperidin-1-yl)pyrido[4,3-d]pyrimidin-2-yl)oxy)methyl)cyclopropyl)methyl)piperidin-4-yl)piperazin-1-yl)pyrazin-2-yl)-1H-1,2,3-triazol-1-yl)-3-methylbutanoyl)-4-hydroxy-N-(((S)-1-(4-(4-methylthiazol-5-yl)phenyl)ethyl)pyrrolidine-2-carboxamide] | 4 | 15 | –
14 | CCc1c(F)ccc2cc(O)cc(-c3ncc4c(N5CCC[C@@](C)(O)C5)nc(OCC5(CN6CCN(C7CCN(c8cnc(-c9cn([C@H](C(=O)N%10C[C@H](O)C[C@H]%10C(=O)N[C@@H](C)c%10ccc(-c%11scnc%11C)cc%10)C(C)C)nn9)cn8)CC7)CC6)CC5)nc4c3F)c12 [Compound 197] | 6.1 | 32 | –
15 | CCc1c(F)ccc2cc(O)cc(-c3ncc4c(N5CCC[C@@](C)(O)C5)nc(OCC5(CN6CCN(C(=O)c7cnc(-c8cn([C@H](C(=O)N9C[C@H](O)C[C@H]9C(=O)N[C@@H](C)c9ccc(-c%10scnc%10C)cc9)C(C)C)nn8)cn7)CC6)CC5)nc4c3F)c12 [Compound 173] | 6 | 35 | –
16 | CCc1c(F)ccc2cc(O)cc(-c3ncc4c(N5CCC[C@@](C)(O)C5)nc(OCC5(CN6CCC(OCc7cnc(-c8cn([C@H](C(=O)N9C[C@H](O)C[C@H]9C(=O)N[C@@H](C)c9ccc(-c%10scnc%10C)cc9)C(C)C)nn8)cn7)CC6)CC5)nc4c3F)c12 [Compound 198] | 6.9 | 21 | –
17 | (2S,4R)-1-((S)-2-(4-(5-((1-((1-(((7-(8-ethyl-7-fluoro-3-hydroxynaphthalen-1-yl)-8-fluoro-4-((R)-3-hydroxy-3-methylpiperidin-1-yl)pyrido[4,3-d]pyrimidin-2-yl)oxy)methyl)cyclopropyl)methyl) piperidin-4-yl)methyl)piperazin-2-yl)-1H-1,2,3-triazol-1-yl)-3-methylbutanoyl)-4-hydroxy-N-((S )-1-(4-(4-methylthiazol-5-yl)phenyl)ethyl)pyrrolidine-2-carboxamide [Compound 193] | – | – | IC50 [1]: 7.3 nM; IC50 [2]: 24 nM
18 | CCc1c(F)ccc2cc(O)cc(-c3ncc4c(N5CCC[C@@](C)(O)C5)nc(OCC5(CN6CCN(CCOc7cc([C@H](C(=O)N8C[C@H](O)C[C@H]8C(=O)N[C@@H](C)c8ccc(-c9scnc9C)cc8)C(C)C)on7)CC6)CC5)nc4c3F)c12 [Compound 175] | 26 | 70 | –
19 | (2S,4R)-1-((S)-2-(4-(5-(2-(4-((1-(((7-(8-ethyl-7-fluoro-3-hydroxynaphthalen-1-yl)-8-fluoro-4-(( R)-3-hydroxy-3-methylpiperidin-1-yl)pyrido[4,3-d]pyrimidin-2-yl)oxy)methyl)cyclopropyl)meth yl)piperazin-1-yl)ethyl)pyrazin-2-yl)-1H-1,2,3-triazol-1-yl)-3-methylbutanoyl)-4-hydroxy-N-((S )-1-(4-(4-methylthiazol-5-yl)phenyl)ethyl)pyrrolidine-2-carboxamide [Compound 191] | – | – | IC50 [1]: 3.1 nM; IC50 [2]: 12 nM
20 | C=C1CN2[C@H](CN3CCC(c4cn([C@H](C(=O)N5C[C@H](O)C[C@H]5C(=O)N[C@@H](C)c5ccc(-c6scnc6C)cc5)C(C)C)nn4)CC3)CC[C@@]2(COc2nc(N3CCC[C@@](C)(O)C3)c3cnc(-c4cc(O)cc5ccc(F)c(CC)c45)c(F)c3n2)C1 [Compound 123] | – | – | IC50 ([1]; Homo sapiens, AGS, 96 h): 82 nM; DC50 [3]: 122 nM
